# Key:
# [1] = Lacrimation stimulating activity of odorant substances in mice; format: in vivo; settings: for Change in lacrimation output after 15 minutes (%): 30 mg/kg into the caudal vein, relative to the average of two measurements before administration
# Description: Then, using (R)-(−)-carvone, (+)-pregon, borneol, trans-4-methylcyclohexanol, and menthol, all of which are odorant substances, each dissolved in 0.1% hydrogenated castor oil-saline, the lacrimation-stimulating activities of these substances were evaluated in vivo. The method used was as follows.
# The tear fluid was collected from the left eye of mice at 15-min intervals using a glass microcapillary tube (aspiration capacity 0.5 μL/32 mm). The amount of aspirated tear fluid was measured in length (mm) using calipers and converted to μL for use as a marker of lacrimation output. Mice were anesthetized by intraperitoneal administration of Nembutal Anesthetic Solution (0.2 mL/10 g body weight, dosage 60 mg/kg). After the loss of pain reflex was confirmed in the mice, the measurement of lacrimation output was started. Measurements were invariably carried out at 15-min intervals from the start to the end. After two initial measurements made 15 minutes apart, each test substance (dosage 30 mg/kg) was immediately administered into the caudal vein of mice at a ratio of 0.1 mL/10 g body weight. Thereafter, the collection of tear fluid was carried out at 15-min intervals.
# The change in lacrimation output was expressed in the percentage of the lacrimation output at each measurement relative to the average of the lacrimation outputs at two initial measurements prior to administration of each test substance.
# [2] = Combined use of an odorant substance and pilocarpine hydrochloride on lacrimation output in mice; format: in vivo
# Description: The effect of the combined use of (R)-(−)carvone, i.e. the odorant substance used in Example 1, and pillocarpine hydrochloride was evaluated. The method used was as follows. The tear fluid was collected from the left eye of mice at 15-min intervals using a glass microcapillary tube (aspiration capacity 0.5 μL/32 mm). The amount of aspirated tear fluid was measured in length (mm) using calipers and converted to μL for use as a marker of lacrimation output. Mice were anesthetized by intraperitoneal administration of Nembutal Anesthetic Solution (0.2 mL/10 g body weight, dosage 60 mg/kg). After the loss of pain reflex was confirmed in the mice, the measurement of lacrimation output was started. Measurements were invariably carried out at 15-min intervals from the start to the end. After two initial measurements made 15 minutes apart, the test substance was immediately administered into the caudal vein of mice at a ratio of 0.1 mL/10 g body weight. Then, the measurement was repeated at 15-min intervals. Immediately after the measurement of lacrimation output at 15 minutes following administration of the test substance, […] pilocarpine hydrochloride was administered subcutaneously at 0.1 mL/10 g body weight (dosage 5 mg/kg). The collection of tear fluid was further carried out 4 times at 15-min intervals. […] The results on (R)-(−)-carvone (dosage 30 mg/kg) are shown in the graph in FIG. 3. […]
# sodium-potassium ATPase = settings: olfactory tissue; Life Sciences, 20, 1051-1062 (1977); cited from earlier work
# lens aldose reductase = molecular target: T1, lens aldose reductase (Homo sapiens, UniProt P15121); settings: Arch. Pharm. Res., 11, 312-314 (1988); cited from earlier work
# T1 construct: host or cells: lens
SMILES,Change in lacrimation output after 15 minutes (%) [1] [%],other results
CC(C)=C1CC[C@@H](C)CC1=O [(+)-pregon],70.2,
C=C(C)[C@@H]1CC=C(C)C(=O)C1 [(R)-(−)-carvone],61.5,"increase in lacrimation output ([1]; Example 3, 15 to 30 minutes after administration): not less than 60%; change in lacrimation output, combined use with pilocarpine hydrochloride ([2]; (R)-(-)-carvone 30 mg/kg i.v., then 0.005% pilocarpine hydrochloride s.c. (dosage 5 mg/kg) 15 minutes later, FIG. 3): marked increases in lacrimation; duration of the lacrimation effect, combined use with pilocarpine ([2]; Example 4 compared with Example 3): further prolongation of the effect; effect on sodium-potassium ATPase (sodium-potassium ATPase): influence; inhibition of lens aldose reductase (lens aldose reductase): inhibit"
"CC1(C)C2CCC1(C)C(O)C2 (stereo not shown) [Borneol, borneol]",97.5,
"CC1CCC(C(C)C)C(O)C1 (stereo not shown) [Menthol, menthol]",88.1,
"C[C@H]1CC[C@H](O)CC1 [Trans-4-methylcyclohexanol, trans-4-methylcyclohexanol]",85.4,

# From patent US20040235742A1, “Water channel opener compositions and medicinal compositions for ophthalmic use” (SANTEN PHARMACEUTICAL CO., LTD., priority 1999, published 2004)
